Reference: US20150322083A1, “(THIENO[2,3-b][1,5]BENZOXAZEPIN-4-YL)PIPERAZIN-1-YL COMPOUNDS AS SELECTIVE 5-HT2A INVERSE AGONISTS” (Eli Lilly and Company, priority 2014, published 2015)

How the values were obtained:
[1] = target: 5-HT1B receptors (Homo sapiens, UniProt P28222); test: 5-HT1B binding
Protocol: (§1) Curves are evaluated using a 4-parameter logistic nonlinear equation to obtain the concentration of competitor causing 50% inhibition of radioligand binding (IC50). Equilibrium dissociation constants (Ki) are calculated according to the equation Ki=IC50/(1+L/Kd), where L equals the concentration of radioligand used in the experiment and Kd equals the equilibrium dissociation constant of the radioligand for the receptor, determined from standard saturation analysis or homologous competition experiments. Reported values for Ki, where n values are indicated, are shown as geometric mean±the standard error of the mean (SEM), with the number of replicate determinations indicated by n. Geometric means are calculated by the equation GeoMean=10̂(Average(log Ki 1+log Ki 2+ . . . log Ki n)/[…]).
(§2) Further, the compounds of the invention may be tested in binding assays and functional activity assays by well known methods for other physiologically important receptors such as, but not limited to, the hERG channel, other serotonin receptors (specifically 5-HT1B receptors, lack of agonist activity at 5-HT2B receptors, 5-HT2C, 5-HT5, 5-HT6, and 5-HT7 receptors), dopaminergic receptors (specifically D1, D2, and D3), H1 receptors, GABAA receptors, adrenergic receptors and monoamine transporters.

[2] = target: Dopamine Transporter (Homo sapiens, UniProt Q01959); test: Dopamine transporter binding
Protocol: as §1, §2

[3] = target: 5-HT5 (Homo sapiens, UniProt P47898); test: 5-HT5 binding
Protocol: as §1, §2

[4] = target: H1 receptors (Homo sapiens, UniProt P35367); test: H1 receptor binding
Protocol: as §1, §2

[5] = target: hERG channel (Homo sapiens, UniProt Q12809); test: hERG channel assay (selectivity data)
Text: as §2

[6] = test system: DOI induced headshake response; test: Inhibition of DOI induced headshake activity; assay type: in vivo, male C57BL/6J mice; conditions: mice, PO, 60 min. pre-treatment, DOI 3 mg/kg subcutaneously
Protocol: (see for example Bartoszyk G D, van Amsterdam C, Böttcher H, Seyfried C A. EMD 281014, a new selective serotonin 5-HT2A receptor antagonist. Eur J Pharmacol. 2003 473: 229-230.) This assay has also be used as an indicator of anti-psychotic therapeutic potential. Briefly, male C57BL/6J mice (20-25 g, Charles River) are housed in standard housing conditions (32 mice in a large IVC cage, 07.00 to 19.00 light phase, constant temperature (19-23° C.) and humidity (50%+/−10), ad lib food and water). Mice received either vehicle (0.25% Methyl cellulose), DOI (3 mg/kg in saline) or test compound at doses up to 10 mg/kg PO plus DOI (3 mg/kg in saline). Test compounds are individually evaluated at 4 doses with n=4 for each dose, together with vehicle and DOI+vehicle (n=8). After a test compound pre-treatment time of 60 min. the mice receive either vehicle (saline) or 3 mg/kg DOI dosed subcutaneously, and are then placed into clear perspex observation chambers. […] The data is analyzed using an ANOVA and post-hoc Dunnet's Test. The compounds of Example 1 and Example 2 are tested essentially as described and are found to inhibit the DOI induced headshake response with an approximate EC50 of 0.5 mg/kg for both compounds.

[7] = target: T1, recombinant rat 5-HT2A receptor (Rattus norvegicus, UniProt P14842); test: 5-HT2A inverse agonism, [35S]GTPγS binding to AV12 membranes (rat receptor); assay type: biochemical; conditions: n=2, read-out: EC50, inhibition of intrinsic activity of the 5-HT2A receptor
T1 construct: expressed in transfected cells; host or cells: AV12 cells, membranes
Protocol: The inverse agonist activity of compounds of the present invention may be determined by literature recognized assay methods measuring [^35S]GTPγS binding to membranes transfected with 5-HT2A receptors in an in vitro activity assay essentially as described below.
Membranes are prepared from frozen pellets of whole AV12 cells expressing the human or rat 5-HT2A receptor. Cells are thawed on ice and homogenized in homogenization buffer (50 mM Tris-HCl, 0.5 mM EDTA, 1 tablet/100 mL of complete EDTA free protease inhibitor tablets (Roche Cat. No. 05 056 489 001), pH=7.4) with 20 strokes of a teflon-glass homogenizer attached to a motorized overhead stirrer. Centrifuge membranes at 1000 rpm (aprox. 150×g) for 15 min. at 4° C. […] The final supernatant is discarded and the pellet is resuspended in homogenization buffer and its protein content is determined by the method of Bradford using BSA as the standard. […]
Test compound is prepared from a 10 mM DMSO stock solution by serial dilution to provide a 10 point concentration response curve, with a final 1% DMSO concentration when added to the assay mixture. […] This mixture is incubated for 3 hr. with constant shaking at room temperature, centrifuged at 300 rpm for 1 min. with no brake and incubated for 3 more hr. before reading in a microplate scintillation counter.

[8] = target: Dopamine D3 (Homo sapiens, UniProt P35462); test: Dopamine D3 binding
Protocol: as §1, §2

[9] = target: Serotonin Transporter (Homo sapiens, UniProt P31645); test: Serotonin transporter binding
Protocol: as §1, §2

Serotonin Transporter, sequence (P31645 whole entry): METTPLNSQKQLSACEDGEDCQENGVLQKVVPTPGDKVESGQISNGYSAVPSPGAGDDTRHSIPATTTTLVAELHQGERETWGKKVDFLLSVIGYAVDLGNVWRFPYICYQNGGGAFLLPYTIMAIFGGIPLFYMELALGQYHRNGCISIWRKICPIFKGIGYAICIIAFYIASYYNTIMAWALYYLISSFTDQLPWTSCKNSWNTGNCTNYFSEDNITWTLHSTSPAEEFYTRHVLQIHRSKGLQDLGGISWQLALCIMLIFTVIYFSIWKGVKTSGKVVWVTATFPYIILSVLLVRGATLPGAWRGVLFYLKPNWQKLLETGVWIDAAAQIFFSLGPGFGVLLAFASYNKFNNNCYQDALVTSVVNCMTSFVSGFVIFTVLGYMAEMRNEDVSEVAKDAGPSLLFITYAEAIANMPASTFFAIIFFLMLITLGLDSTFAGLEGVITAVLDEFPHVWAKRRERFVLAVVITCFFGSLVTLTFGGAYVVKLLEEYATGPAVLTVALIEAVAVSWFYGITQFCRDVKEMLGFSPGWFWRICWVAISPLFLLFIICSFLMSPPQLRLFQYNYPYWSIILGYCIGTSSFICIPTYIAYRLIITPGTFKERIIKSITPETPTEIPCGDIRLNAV
Dopamine D3, sequence (P35462 whole entry): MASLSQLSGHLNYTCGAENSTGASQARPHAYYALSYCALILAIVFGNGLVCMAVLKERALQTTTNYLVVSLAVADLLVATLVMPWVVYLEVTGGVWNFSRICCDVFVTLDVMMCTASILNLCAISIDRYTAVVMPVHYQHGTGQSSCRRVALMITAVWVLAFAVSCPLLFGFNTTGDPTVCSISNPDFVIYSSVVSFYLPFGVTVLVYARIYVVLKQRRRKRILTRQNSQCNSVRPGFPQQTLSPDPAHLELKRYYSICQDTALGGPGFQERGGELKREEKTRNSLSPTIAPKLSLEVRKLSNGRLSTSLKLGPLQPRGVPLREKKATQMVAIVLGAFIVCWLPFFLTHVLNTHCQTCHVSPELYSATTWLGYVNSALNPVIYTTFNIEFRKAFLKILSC
hERG channel, sequence (Q12809 whole entry): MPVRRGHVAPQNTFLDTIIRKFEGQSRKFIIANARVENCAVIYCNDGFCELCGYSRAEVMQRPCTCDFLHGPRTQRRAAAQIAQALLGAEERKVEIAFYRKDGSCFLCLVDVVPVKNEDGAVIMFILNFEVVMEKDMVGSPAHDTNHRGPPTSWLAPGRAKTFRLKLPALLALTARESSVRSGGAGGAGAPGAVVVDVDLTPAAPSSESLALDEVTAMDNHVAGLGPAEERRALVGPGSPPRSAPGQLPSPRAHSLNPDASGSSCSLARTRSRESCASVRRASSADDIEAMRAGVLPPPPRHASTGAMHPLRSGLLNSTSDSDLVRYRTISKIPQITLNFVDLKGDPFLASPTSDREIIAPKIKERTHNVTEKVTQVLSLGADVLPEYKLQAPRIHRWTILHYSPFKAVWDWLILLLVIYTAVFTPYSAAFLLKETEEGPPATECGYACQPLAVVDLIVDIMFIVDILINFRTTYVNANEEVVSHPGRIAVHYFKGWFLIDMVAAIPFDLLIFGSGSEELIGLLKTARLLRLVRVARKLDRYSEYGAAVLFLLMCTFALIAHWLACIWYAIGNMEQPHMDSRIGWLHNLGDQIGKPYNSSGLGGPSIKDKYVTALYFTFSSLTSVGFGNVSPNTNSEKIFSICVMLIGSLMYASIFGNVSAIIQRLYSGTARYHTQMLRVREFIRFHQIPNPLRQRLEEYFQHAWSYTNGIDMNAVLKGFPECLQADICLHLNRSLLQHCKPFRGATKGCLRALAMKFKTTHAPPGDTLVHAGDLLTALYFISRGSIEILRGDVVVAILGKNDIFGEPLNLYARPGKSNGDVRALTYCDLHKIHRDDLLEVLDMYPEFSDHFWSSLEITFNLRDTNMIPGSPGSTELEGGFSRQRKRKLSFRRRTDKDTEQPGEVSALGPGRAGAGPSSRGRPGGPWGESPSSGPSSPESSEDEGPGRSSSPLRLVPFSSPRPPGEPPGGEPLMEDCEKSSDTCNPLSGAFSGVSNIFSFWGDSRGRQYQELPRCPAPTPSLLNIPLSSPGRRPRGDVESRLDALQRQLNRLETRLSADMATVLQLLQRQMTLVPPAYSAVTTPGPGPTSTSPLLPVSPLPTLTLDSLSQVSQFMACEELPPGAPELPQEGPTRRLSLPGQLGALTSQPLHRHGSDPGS
T1 sequence (P14842 whole entry): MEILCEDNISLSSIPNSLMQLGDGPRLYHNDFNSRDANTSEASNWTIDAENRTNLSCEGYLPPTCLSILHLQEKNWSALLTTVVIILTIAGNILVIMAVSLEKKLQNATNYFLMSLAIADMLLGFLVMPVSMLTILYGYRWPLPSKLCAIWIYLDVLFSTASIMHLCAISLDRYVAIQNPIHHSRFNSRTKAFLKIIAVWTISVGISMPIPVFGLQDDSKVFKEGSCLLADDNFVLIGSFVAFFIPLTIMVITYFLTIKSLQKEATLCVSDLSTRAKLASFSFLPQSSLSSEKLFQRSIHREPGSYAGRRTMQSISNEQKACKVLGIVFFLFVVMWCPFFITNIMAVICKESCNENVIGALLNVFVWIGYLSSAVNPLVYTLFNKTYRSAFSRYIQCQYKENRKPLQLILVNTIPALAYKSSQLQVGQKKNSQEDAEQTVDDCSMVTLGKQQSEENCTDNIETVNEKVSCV
Dopamine Transporter, sequence (Q01959 whole entry): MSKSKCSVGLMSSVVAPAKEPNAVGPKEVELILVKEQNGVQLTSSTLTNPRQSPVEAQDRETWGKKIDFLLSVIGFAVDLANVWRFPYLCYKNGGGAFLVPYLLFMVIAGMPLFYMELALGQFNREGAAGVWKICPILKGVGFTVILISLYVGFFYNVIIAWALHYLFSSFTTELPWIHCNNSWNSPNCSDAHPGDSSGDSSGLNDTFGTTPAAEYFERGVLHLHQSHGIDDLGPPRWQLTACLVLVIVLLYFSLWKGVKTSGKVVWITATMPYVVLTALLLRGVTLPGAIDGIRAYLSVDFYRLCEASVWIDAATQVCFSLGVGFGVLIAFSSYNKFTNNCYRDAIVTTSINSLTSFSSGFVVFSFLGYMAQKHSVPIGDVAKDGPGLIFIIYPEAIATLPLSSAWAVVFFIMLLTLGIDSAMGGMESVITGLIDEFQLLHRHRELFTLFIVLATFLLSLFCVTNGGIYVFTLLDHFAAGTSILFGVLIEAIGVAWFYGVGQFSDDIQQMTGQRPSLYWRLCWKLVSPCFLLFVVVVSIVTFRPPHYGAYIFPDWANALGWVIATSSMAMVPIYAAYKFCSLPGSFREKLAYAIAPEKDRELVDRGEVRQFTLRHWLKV
5-HT1B receptors, sequence (P28222 whole entry): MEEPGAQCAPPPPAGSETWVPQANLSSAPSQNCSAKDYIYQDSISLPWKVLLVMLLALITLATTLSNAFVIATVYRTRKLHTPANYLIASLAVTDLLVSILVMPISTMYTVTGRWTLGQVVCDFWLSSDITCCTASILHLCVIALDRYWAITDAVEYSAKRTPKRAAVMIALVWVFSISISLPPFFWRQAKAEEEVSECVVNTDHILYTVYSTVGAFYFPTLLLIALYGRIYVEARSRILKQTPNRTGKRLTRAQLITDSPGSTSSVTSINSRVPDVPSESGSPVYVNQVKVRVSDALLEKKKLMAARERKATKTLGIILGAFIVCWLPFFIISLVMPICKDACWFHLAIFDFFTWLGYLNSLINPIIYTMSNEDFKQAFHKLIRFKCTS
H1 receptors, sequence (P35367 whole entry): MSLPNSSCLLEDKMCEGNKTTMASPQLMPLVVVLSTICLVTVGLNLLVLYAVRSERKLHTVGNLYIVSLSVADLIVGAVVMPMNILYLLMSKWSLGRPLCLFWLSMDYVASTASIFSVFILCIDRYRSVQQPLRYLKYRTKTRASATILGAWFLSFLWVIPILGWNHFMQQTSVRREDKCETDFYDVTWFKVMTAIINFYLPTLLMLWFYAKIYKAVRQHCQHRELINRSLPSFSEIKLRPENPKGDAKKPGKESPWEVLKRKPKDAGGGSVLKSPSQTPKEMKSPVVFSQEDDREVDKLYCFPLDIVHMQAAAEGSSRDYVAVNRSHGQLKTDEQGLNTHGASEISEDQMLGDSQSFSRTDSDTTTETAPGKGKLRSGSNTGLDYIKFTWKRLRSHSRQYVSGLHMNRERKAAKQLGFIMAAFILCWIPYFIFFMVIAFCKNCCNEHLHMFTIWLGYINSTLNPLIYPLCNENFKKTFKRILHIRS
5-HT5, sequence (P47898 whole entry, species assumed): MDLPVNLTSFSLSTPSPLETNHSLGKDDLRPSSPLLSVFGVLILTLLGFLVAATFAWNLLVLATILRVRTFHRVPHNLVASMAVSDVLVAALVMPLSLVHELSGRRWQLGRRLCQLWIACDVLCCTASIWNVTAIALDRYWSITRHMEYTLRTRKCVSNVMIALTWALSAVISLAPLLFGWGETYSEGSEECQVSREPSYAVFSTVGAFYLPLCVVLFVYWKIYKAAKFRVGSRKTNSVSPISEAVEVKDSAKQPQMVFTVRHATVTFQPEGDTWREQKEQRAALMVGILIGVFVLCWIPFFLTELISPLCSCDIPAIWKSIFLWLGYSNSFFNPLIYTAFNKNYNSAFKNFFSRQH

## Cc1ccc2c(c1)Oc1sc(SC(C)C)cc1C(N1CCN(CC(C)(C)C(=O)O)CC1)=N2 [Example 1, 3-[4-(2-isopropylsulfanyl-8-methyl-thieno[2,3-b][1,5]benzoxazepin-4-yl)piperazin-1-yl]-2,2-dimethyl-propanoic acid]
[1]
  Ki: > 9590 nM
[2]
  Ki: > 866 nM
[3]
  Ki: 6710 nM
[4]
  Ki: 599 nM
[5]
  hERG Channel: >100 µM
[6]
  approximate EC50, inhibition of DOI induced headshake response: ~0.5 mg/kg
[7]
  EC50: 103 nM
[8]
  Ki: > 5470 nM
[9]
  Ki: > 521 nM
